Results taken from PubChem BioAssay AID248 (DTP/NCI, 2004).
“And” between values parts separate entries of the source, which are not always exact repeats. Equal entries are not always repeated. Toxic doses and inconclusive results are not listed. No stated cut-off is given here; in the data, active means T/C of 150% or more; inactive means T/C below 125%.

Test system: L1210 leukemia ip in BDF1 mice, survival T/C
Experiment: NCI In Vivo Anticancer Drug Screen. Data for tumor model L1210 Leukemia (intraperitoneal) in B6D2F1 (BDF1) mice
Details: endpoint: mean survival time, higher = longer survival
Outline: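 Transplanted-tumor mice were given test agent; controls received vehicle only. Survival readings from the two groups were divided (treated over control).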

[1] = dose: 100.0 mg/kg/injection, schedule: Q04DX003 (ip), vehicle: saline with Tween-80
[2] = dose: 200.0 mg/kg/injection, schedule: Q04DX003 (ip), vehicle: saline with Tween-80
[3] = dose: 400.0 mg/kg/injection, schedule: Q04DX003 (ip), vehicle: saline with Tween-80
[4] = dose: 100.0 mg/kg/injection, schedule: Q01DX001 (ip), vehicle: carboxymethylcellulose (CMC)
[5] = dose: 200.0 mg/kg/injection, schedule: Q01DX001 (ip), vehicle: carboxymethylcellulose (CMC)
[6] = dose: 400.0 mg/kg/injection, schedule: Q01DX001 (ip), vehicle: carboxymethylcellulose (CMC)
[7] = dose: 50.0 mg/kg/injection, schedule: Q01DX001 (ip), vehicle: carboxymethylcellulose (CMC)
[8] = dose: 100.0 mg/kg/injection, schedule: Q04DX002 (ip), vehicle: Klucel (hydroxypropylcellulose) (HPC)
[9] = dose: 200.0 mg/kg/injection, schedule: Q04DX002 (ip), vehicle: Klucel (hydroxypropylcellulose) (HPC)
[10] = dose: 400.0 mg/kg/injection, schedule: Q04DX002 (ip), vehicle: Klucel (hydroxypropylcellulose) (HPC)
[11] = dose: 100.0 mg/kg/injection, schedule: Q01DX009 (ip), vehicle: other
[12] = dose: 100.0 mg/kg/injection, schedule: Q04DX003 (ip), vehicle: saline
[13] = dose: 200.0 mg/kg/injection, schedule: Q01DX009 (ip), vehicle: other
[14] = dose: 200.0 mg/kg/injection, schedule: Q04DX003 (ip), vehicle: saline
[15] = dose: 400.0 mg/kg/injection, schedule: Q01DX009 (ip), vehicle: other
[16] = dose: 100.0 mg/kg/injection, schedule: Q01DX009 (ip), vehicle: Klucel (hydroxypropylcellulose) (HPC)

Measured: T/C

CNc1cc([N+](=O)[O-])ccc1OCc1ccccc1
inactive: dose: 75.0 mg/kg/injection, schedule: Q01DX009 (ip), vehicle: saline with Tween-80 87 % of control | [1] 89 % of control | dose: 150.0 mg/kg/injection, schedule: Q01DX009 (ip), vehicle: saline with Tween-80 87 % of control | [2] 92 % of control | dose: 300.0 mg/kg/injection, schedule: Q01DX009 (ip), vehicle: saline with Tween-80 91 % of control | [3] 101 % of control

Nc1nc(N)c(-c2ccc(Cl)cc2)c(/C=C/c2ccc([N+](=O)[O-])cc2)n1
inactive: dose: 50.0 mg/kg/injection, schedule: Q01DX001 (ip), vehicle: saline 104 % of control | dose: 100.0 mg/kg/injection, schedule: Q01DX001 (ip), vehicle: saline 93 % of control | dose: 200.0 mg/kg/injection, schedule: Q01DX001 (ip), vehicle: saline 93 % of control | dose: 400.0 mg/kg/injection, schedule: Q01DX001 (ip), vehicle: saline 96 % of control

CS(=O)(=O)N(c1nc2ccccc2s1)S(C)(=O)=O
inactive: dose: 100.0 mg/kg/injection, schedule: Q04DX003 (ip), vehicle: carboxymethylcellulose (CMC) 95 % of control | dose: 200.0 mg/kg/injection, schedule: Q04DX003 (ip), vehicle: carboxymethylcellulose (CMC) 93 % of control | dose: 400.0 mg/kg/injection, schedule: Q04DX003 (ip), vehicle: carboxymethylcellulose (CMC) 95 % of control

Nc1ccc(CCCCc2ccccc2)cc1
inactive: dose: 25.0 mg/kg/injection, schedule: Q01DX009 (ip), vehicle: saline with Tween-80 96 % of control | dose: 50.0 mg/kg/injection, schedule: Q01DX009 (ip), vehicle: saline with Tween-80 89 % of control

O=[N+]([O-])c1ccc(CSCc2ccc(Cl)cc2)cc1
inactive: [4] 97 % of control | [5] 97 % of control | [6] 94 % of control

CCCCOC(OCCCC)c1ccccc1
inactive: [7] 95 % of control | [4] 88 % of control

COc1cc2nc3cc(Nc4ccccc4)c(=O)c(C(C)=O)c-3n(CCN3CCOCC3)c2cc1OC
inactive: [8] 90 % of control | [9] 87 % of control | [10] 107 % of control

COc1ccccc1N=NN(C)C
inactive: dose: 1.0 mg/kg/injection, schedule: Q01DX009 (ip), vehicle: Klucel (hydroxypropylcellulose) (HPC) 115 % of control | dose: 3.0 mg/kg/injection, schedule: Q01DX009 (ip), vehicle: Klucel (hydroxypropylcellulose) (HPC) 101 % of control | dose: 3.12 mg/kg/injection, schedule: Q01DX009 (ip), vehicle: Klucel (hydroxypropylcellulose) (HPC) 100 % of control | dose: 3.12 mg/kg/injection, schedule: Q04DX003 (ip), vehicle: Klucel (hydroxypropylcellulose) (HPC) 95 % of control | dose: 6.0 mg/kg/injection, schedule: Q01DX009 (ip), vehicle: Klucel (hydroxypropylcellulose) (HPC) 115 % of control | dose: 6.25 mg/kg/injection, schedule: Q01DX009 (ip), vehicle: Klucel (hydroxypropylcellulose) (HPC) 108 % of control | dose: 6.25 mg/kg/injection, schedule: Q04DX003 (ip), vehicle: Klucel (hydroxypropylcellulose) (HPC) 109 % of control | dose: 12.5 mg/kg/injection, schedule: Q01DX009 (ip), vehicle: Klucel (hydroxypropylcellulose) (HPC) 94 % of control | dose: 12.5 mg/kg/injection, schedule: Q04DX003 (ip), vehicle: Klucel (hydroxypropylcellulose) (HPC) 113 % of control

NC(CSS(=O)(=O)O)=NCc1ccoc1
inactive: dose: 12.5 mg/kg/injection, schedule: Q04DX002 (ip), vehicle: saline with Tween-80 98 % of control | dose: 25.0 mg/kg/injection, schedule: Q04DX002 (ip), vehicle: saline with Tween-80 98 % of control | dose: 50.0 mg/kg/injection, schedule: Q04DX002 (ip), vehicle: saline with Tween-80 95 % of control and 98 % of control

O=S(=O)(F)c1cc(Cl)cc(Cl)c1O
inactive: dose: 100.0 mg/kg/injection, schedule: Q04DX002 (ip), vehicle: other 93 % of control | dose: 200.0 mg/kg/injection, schedule: Q04DX002 (ip), vehicle: other 93 % of control | dose: 400.0 mg/kg/injection, schedule: Q04DX002 (ip), vehicle: other 104 % of control

O=c1[nH]cnc2c1ncn2CCCOc1ccccc1
inactive: [8] 91 % of control | [9] 88 % of control | [10] 88 % of control

CCCCCC(=O)CC(=O)c1cccs1
inactive: dose: 200.0 mg/kg/injection, schedule: Q01DX Z (ip), vehicle: other 100 % of control | dose: 400.0 mg/kg/injection, schedule: Q01DX Z (ip), vehicle: other 103 % of control

O=[N+]([O-])c1ccc(OCc2ccc(S(=O)(=O)F)c(Cl)c2)c(Cl)c1
inactive: [11] 101 % of control | [12] 101 % of control | [13] 108 % of control | [14] 104 % of control | [15] 94 % of control | dose: 400.0 mg/kg/injection, schedule: Q04DX003 (ip), vehicle: saline 88 % of control

CCC(=O)C(CC)c1ccccc1 (stereo not drawn)
inactive: dose: 100.0 mg/kg/injection, schedule: Q01DX009 (ip), vehicle: saline with Tween-80 95 % of control | [1] 102 % of control | dose: 200.0 mg/kg/injection, schedule: Q01DX009 (ip), vehicle: saline with Tween-80 94 % of control | [2] 97 % of control | dose: 400.0 mg/kg/injection, schedule: Q01DX009 (ip), vehicle: saline with Tween-80 100 % of control | [3] 97 % of control

COCCN(CCOC)/N=N/c1nc[nH]c1C(N)=O
inactive: dose: 50.0 mg/kg/injection, schedule: Q01DX001 (ip), vehicle: water 104 % of control | dose: 50.0 mg/kg/injection, schedule: Q04DX003 (ip), vehicle: water 98 % of control | dose: 100.0 mg/kg/injection, schedule: Q01DX001 (ip), vehicle: water 102 % of control | dose: 100.0 mg/kg/injection, schedule: Q04DX003 (ip), vehicle: water 107 % of control | dose: 200.0 mg/kg/injection, schedule: Q01DX001 (ip), vehicle: water 101 % of control | dose: 200.0 mg/kg/injection, schedule: Q04DX003 (ip), vehicle: water 100 % of control | dose: 400.0 mg/kg/injection, schedule: Q01DX001 (ip), vehicle: water 102 % of control | dose: 400.0 mg/kg/injection, schedule: Q04DX003 (ip), vehicle: water 111 % of control

Cc1cc(Cl)c(Cl)cc1NC(=O)Nc1ccccc1F
inactive: [11] 89 % of control and 92 % of control | [13] 89 % of control | [15] 98 % of control and 90 % of control

COC1CC(OC2C(C)C(=O)OC(C)C(C)C(OC(C)=O)C(C)C(=O)C3(CO3)CC(C)C(OC3OC(C)CC(N(C)C)C3OC(C)=O)C2C)OC(C)C1OC(C)=O (stereo not drawn)
inactive: [4] 108 % of control | [5] 113 % of control | [6] 108 % of control

CN(C(=O)c1ccc([N+](=O)[O-])cc1)c1ccccc1
inactive: [7] 100 % of control | [4] 118 % of control | [16] 103 % of control | [8] 93 % of control | [5] 108 % of control | dose: 200.0 mg/kg/injection, schedule: Q01DX009 (ip), vehicle: Klucel (hydroxypropylcellulose) (HPC) 96 % of control | [9] 90 % of control | [6] 96 % of control | dose: 400.0 mg/kg/injection, schedule: Q01DX009 (ip), vehicle: Klucel (hydroxypropylcellulose) (HPC) 100 % of control | [10] 123 % of control

NC(N)=Nc1ccc(C(=O)Oc2ccc([N+](=O)[O-])cc2Cl)cc1
inactive: dose: 25.0 mg/kg/injection, schedule: Q01DX009 (ip), vehicle: saline 94 % of control | dose: 50.0 mg/kg/injection, schedule: Q01DX009 (ip), vehicle: saline 97 % of control | dose: 100.0 mg/kg/injection, schedule: Q01DX009 (ip), vehicle: saline 87 % of control | [12] 96 % of control | [14] 94 % of control

N#CCCCCCCCCCC#N
inactive: dose: 10.0 mg/kg/injection, schedule: Q04DX003 (ip), vehicle: Klucel (hydroxypropylcellulose) (HPC) 93 % of control | dose: 20.0 mg/kg/injection, schedule: Q04DX003 (ip), vehicle: Klucel (hydroxypropylcellulose) (HPC) 100 % of control | dose: 40.0 mg/kg/injection, schedule: Q04DX003 (ip), vehicle: Klucel (hydroxypropylcellulose) (HPC) 109 % of control | [16] 96 % of control
